Calls of active or inactive are those of the source. No cut-off for these calls is given here.

From ChEMBL document CHEMBL2385078, “The systematic structure-activity relationship to predict how flavones bind to human androgen receptor for their antagonistic activity” (Bioorg Med Chem, 2013) come the findings set out here.

The target of one experiment is T1, Androgen receptor (Homo sapiens, UniProt P10275).
T1 sequence (P10275 whole entry): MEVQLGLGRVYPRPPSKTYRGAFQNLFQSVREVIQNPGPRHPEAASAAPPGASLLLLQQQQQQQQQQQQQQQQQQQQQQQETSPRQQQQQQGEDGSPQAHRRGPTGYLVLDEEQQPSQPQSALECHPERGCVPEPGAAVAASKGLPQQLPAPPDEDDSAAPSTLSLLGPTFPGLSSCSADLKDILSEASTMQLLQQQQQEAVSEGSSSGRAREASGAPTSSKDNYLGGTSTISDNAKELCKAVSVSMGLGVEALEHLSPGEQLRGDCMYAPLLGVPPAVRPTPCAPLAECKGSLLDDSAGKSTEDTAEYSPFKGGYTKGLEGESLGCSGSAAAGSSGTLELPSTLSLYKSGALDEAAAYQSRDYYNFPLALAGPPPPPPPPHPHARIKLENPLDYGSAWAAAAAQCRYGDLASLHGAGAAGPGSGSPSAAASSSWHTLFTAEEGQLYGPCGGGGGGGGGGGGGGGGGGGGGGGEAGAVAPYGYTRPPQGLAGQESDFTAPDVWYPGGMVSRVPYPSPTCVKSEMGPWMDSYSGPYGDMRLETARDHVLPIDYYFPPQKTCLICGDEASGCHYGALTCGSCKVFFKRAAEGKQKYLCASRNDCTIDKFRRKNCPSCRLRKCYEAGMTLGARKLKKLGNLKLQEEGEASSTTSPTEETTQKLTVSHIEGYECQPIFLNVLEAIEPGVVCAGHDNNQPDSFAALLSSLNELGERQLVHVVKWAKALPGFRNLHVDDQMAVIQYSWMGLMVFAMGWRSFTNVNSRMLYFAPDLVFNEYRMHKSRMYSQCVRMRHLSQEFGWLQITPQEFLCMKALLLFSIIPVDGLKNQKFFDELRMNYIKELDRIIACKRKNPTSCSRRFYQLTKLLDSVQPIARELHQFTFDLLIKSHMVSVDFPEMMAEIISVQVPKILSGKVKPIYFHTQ
Put plainly: Antagonist activity at human androgen receptor LBD expressed in human MDA-kb2 cells by luciferase reporter gene assay. Type of experiment: cell-based.

The target in experiment [1] is T2, Androgen receptor (Homo sapiens) (UniProt P10275).
T2 sequence (whole entry): T1 sequence (P10275 whole entry)
Put plainly: Competitive reversible inhibition of human androgen receptor LBD expressed in human […] cells at IC10 to IC70 in presence of […]. Type of experiment: cell-based.

`Nc1ccc(-c2cc(=O)c3c(O)cccc3o2)cc1`: the IC50 was 1990 nM at Androgen receptor (read-out: IC50) and 2000 nM on Androgen receptor (read-out: pIC50 (converted)).

`NC(=O)c1ccc(-c2cc(=O)c3c(O)cccc3o2)cc1`: the IC50 is 3580 nM on Androgen receptor (read-out: IC50) and 3550 nM at Androgen receptor (read-out: pIC50 (converted)).

Consider `O=c1cc(-c2ccc(Cl)cc2)oc2cccc(O)c12`, for which the IC50 was 460 nM on Androgen receptor (read-out: IC50) and 457 nM on Androgen receptor (read-out: pIC50 (converted)).

As to `CSc1ccc(-c2cc(=O)c3c(O)cccc3o2)cc1`, the IC50 on Androgen receptor (read-out: IC50) and on Androgen receptor (read-out: pIC50 (converted)) was 1070 nM throughout.

`N#Cc1ccc(-c2cc(=O)c3c(F)cccc3o2)cc1`: the IC50 on Androgen receptor (read-out: IC50) and at Androgen receptor (read-out: pIC50 (converted)) was 1200 nM throughout.

For `CN(C)c1ccc(-c2cc(=O)c3c(O)cccc3o2)cc1`, the figures for the IC50 at Androgen receptor (read-out: IC50) and on Androgen receptor (read-out: pIC50 (converted)) were 850 nM and 851 nM, respectively.

With `O=c1cc(-c2ccc(Cl)cc2)oc2cccc(F)c12`, the IC50 at Androgen receptor (read-out: IC50) was 360 nM; on Androgen receptor (read-out: pIC50 (converted)) it was 363 nM.

With `O=c1cc(-c2ccc([N+](=O)[O-])cc2)oc2cccc(O)c12`, the IC50 on Androgen receptor (read-out: IC50) was 360 nM; at Androgen receptor (read-out: pIC50 (converted)), 363 nM.

As for `O=c1cc(-c2ccc(F)cc2)oc2cccc(F)c12`, the inhibition result in experiment [1] was “Active”. Besides, the IC50 was 190 nM at Androgen receptor (read-out: IC50) and 191 nM on Androgen receptor (read-out: pIC50 (converted)).

For `O=c1cc(-c2ccc(C(F)(F)F)cc2)oc2cccc(O)c12`, the values for the IC50 at Androgen receptor (read-out: IC50) and at Androgen receptor (read-out: pIC50 (converted)) were 1240 nM and 1230 nM, respectively.

As to `N#Cc1ccc(-c2cc(=O)c3c(O)cccc3o2)cc1`, the figures for the IC50 on Androgen receptor (read-out: IC50) and at Androgen receptor (read-out: pIC50 (converted)) were 250 nM and 251 nM, respectively.

For `Cc1ccc(-c2cc(=O)c3c(O)cccc3o2)cc1`, the IC50 on Androgen receptor (read-out: IC50) is 11100 nM; at Androgen receptor (read-out: pIC50 (converted)), 11200 nM.

Take `COc1cccc2oc(-c3ccc(F)cc3)cc(=O)c12`: the IC50 is 1610 nM on Androgen receptor (read-out: IC50) and 1620 nM at Androgen receptor (read-out: pIC50 (converted)).

Regarding `O=c1cc(-c2ccccc2)oc2cccc(F)c12`, the IC50 on Androgen receptor (read-out: IC50) was 770 nM; at Androgen receptor (read-out: pIC50 (converted)) it was 776 nM.

With `O=c1cc(-c2ccc(F)cc2)oc2cccc(O)c12`, the IC50 at Androgen receptor (read-out: IC50) is 330 nM; at Androgen receptor (read-out: pIC50 (converted)), 331 nM.

Turning to `O=c1cc(-c2ccc(O)cc2)oc2cccc(O)c12`, the IC50 at Androgen receptor (read-out: IC50) is 860 nM; at Androgen receptor (read-out: pIC50 (converted)), 851 nM.
